# Source: paper PMC3156125, “Reconstitution of the Costunolide Biosynthetic Pathway in Yeast and Nicotiana benthamiana” (PLoS ONE, 2011)
# Tests used:
# Type in all cases: cell-based
# CiGAO [1] = molecular target: T1, CiGAO (Cichorium intybus, UniProt D5JBW8); assay: yeast co-expression, GC-MS; conditions: WAT11 yeast with TpGAS; detected as elematrien-12-oic acid after heat rearrangement
# T1 construct: cDNA from chicory library, no terminal tags, pESC-Trp in WAT11 yeast with TpGAS
# T1 sequence (D5JBW8 1-488): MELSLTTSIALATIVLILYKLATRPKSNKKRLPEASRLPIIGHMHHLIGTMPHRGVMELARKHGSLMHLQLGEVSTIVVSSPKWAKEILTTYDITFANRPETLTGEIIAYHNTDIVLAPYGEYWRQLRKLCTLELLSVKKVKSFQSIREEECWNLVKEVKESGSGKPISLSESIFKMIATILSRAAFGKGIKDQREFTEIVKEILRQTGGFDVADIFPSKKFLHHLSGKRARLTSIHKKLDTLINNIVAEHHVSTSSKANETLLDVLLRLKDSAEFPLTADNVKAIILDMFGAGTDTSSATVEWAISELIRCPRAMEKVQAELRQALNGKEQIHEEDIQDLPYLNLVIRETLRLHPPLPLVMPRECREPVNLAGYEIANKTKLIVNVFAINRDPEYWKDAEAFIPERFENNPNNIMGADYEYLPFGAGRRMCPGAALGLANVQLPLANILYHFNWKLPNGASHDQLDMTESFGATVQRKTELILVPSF
# CiCOS = molecular target: T2, CiCOS (Cichorium intybus, UniProt G3GBK0); assay: yeast co-expression, GC-MS and UPLC-MRM-MS; conditions: WAT11 yeast with TpGAS and CiGAO; substrate formed in situ; HEPES or MOPS pH 7.5, 30 °C; also N. benthamiana transient expression
# T2 construct: gene CYP71BL3; full-length cDNA in pYEDP60, WAT11 yeast, co-expressed with TpGAS and CiGAO; also N. benthamiana
# T2 sequence (G3GBK0 1-494): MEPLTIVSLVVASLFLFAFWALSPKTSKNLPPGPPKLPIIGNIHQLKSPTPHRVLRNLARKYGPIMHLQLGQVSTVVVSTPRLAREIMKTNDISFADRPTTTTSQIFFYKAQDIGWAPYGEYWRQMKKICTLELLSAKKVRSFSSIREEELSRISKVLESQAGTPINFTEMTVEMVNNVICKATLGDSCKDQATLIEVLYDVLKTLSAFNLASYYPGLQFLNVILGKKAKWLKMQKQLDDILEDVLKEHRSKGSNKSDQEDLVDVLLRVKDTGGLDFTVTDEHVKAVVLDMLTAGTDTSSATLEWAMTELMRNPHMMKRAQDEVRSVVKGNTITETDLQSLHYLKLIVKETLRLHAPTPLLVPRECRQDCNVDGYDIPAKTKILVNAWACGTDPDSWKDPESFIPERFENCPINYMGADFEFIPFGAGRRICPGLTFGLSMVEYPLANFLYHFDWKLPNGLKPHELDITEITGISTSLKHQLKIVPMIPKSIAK
# CiGAO [2] = molecular target: T1, CiGAO; assay: N. benthamiana co-infiltration, headspace GC-MS; conditions: with mTpGAS; substrate formed in situ
# TpGAS = molecular target: T3, TpGAS (Tanacetum parthenium, UniProt F8UL80); assay: yeast culture extract, GC-MS; conditions: endogenous farnesyl diphosphate; also N. benthamiana headspace
# T3 construct: gene GAS
# T3 sequence (F8UL80 1-559): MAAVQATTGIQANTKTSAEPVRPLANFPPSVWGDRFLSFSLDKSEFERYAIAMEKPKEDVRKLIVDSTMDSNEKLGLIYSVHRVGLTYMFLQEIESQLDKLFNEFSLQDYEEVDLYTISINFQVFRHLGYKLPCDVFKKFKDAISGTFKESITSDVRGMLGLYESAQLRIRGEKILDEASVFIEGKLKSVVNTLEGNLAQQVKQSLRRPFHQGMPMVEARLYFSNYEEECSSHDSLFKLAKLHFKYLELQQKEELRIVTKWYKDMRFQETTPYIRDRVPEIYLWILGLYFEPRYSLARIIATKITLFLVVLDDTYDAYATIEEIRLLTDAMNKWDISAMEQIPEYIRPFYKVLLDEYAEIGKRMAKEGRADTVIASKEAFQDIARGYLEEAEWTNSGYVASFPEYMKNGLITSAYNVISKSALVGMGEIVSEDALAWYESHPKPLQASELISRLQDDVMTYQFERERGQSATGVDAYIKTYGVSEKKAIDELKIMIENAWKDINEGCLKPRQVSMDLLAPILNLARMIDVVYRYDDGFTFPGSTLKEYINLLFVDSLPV
# CiGAS-l (CiGAS-long) = molecular target: T4, CiGAS-l (CiGAS-long) (Cichorium intybus, UniProt Q8LSC3); assay: yeast culture extract, GC-MS; conditions: endogenous farnesyl diphosphate
# T4 sequence (Q8LSC3 1-583): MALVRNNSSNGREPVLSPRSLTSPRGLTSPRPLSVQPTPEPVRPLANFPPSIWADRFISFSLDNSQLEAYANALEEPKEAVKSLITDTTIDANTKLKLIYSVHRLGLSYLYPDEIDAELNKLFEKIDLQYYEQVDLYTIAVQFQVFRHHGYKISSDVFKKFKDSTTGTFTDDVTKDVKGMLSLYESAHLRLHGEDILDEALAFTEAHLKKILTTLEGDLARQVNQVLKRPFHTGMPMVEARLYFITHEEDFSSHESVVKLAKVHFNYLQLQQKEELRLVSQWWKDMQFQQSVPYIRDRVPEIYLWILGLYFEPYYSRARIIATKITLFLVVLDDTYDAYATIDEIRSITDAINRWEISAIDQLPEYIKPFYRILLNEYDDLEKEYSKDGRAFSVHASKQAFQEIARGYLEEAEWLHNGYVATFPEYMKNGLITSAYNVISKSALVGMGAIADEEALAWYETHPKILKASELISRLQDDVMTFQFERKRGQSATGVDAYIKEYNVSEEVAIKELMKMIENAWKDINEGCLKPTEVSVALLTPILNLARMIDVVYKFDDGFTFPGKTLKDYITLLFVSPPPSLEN
smiles,measurement,setting,value
"C=C(C(=O)O)[C@H]1C/C=C(\C)CC/C=C(\C)CC1 [germacra-1(10),4,11(13)-trien-12-oic acid]","yeast co-expression, GC-MS",CiGAO [1],enzymatic activity was confirmed in our yeast system by co-expression of TpGAS and CiGAO
C=C1C(=O)O[C@@H]2/C=C(\C)CC/C=C(\C)CC[C@@H]12 [costunolide],"yeast co-expression, GC-MS and UPLC-MRM-MS",CiCOS,encodes an enzymatic activity which was able to produce costunolide
C=C(C)[C@H]1C/C=C(\C)CC/C=C(\C)CC1 [germacrene A],"N. benthamiana co-infiltration, headspace GC-MS",CiGAO [2],"CiGAO can efficiently catalyse the conversion of the product of mTpGAS, germacrene A"
same,"yeast culture extract, GC-MS",TpGAS,yeast culture expressing TpGAS had an approximately three fold higher activity
same,"yeast culture extract, GC-MS",CiGAS-l (CiGAS-long),Germacrene A production in yeast. A yeast culture transformed by either CiGAS-long
